Experimental data as given in patent publication US6395745B1, “Alkaloid halide salts of swainsonine and methods of use” (priority 1997, dated 2002).

Key:
[1] = Preformulation hygroscopicity study of bulk drug (water uptake, Karl Fischer); assay type: physicochemical; details: for water absorbed by Karl Fischer: after 48 hours of storage; for water absorbed: 75% RH
Protocol: (§1) Preformulation studies of swainsonine hydrochloride, bulk drug substance, and in combination with powder and semisolid fill gelatin capsules were conducted with respect to the following: hygroscopicity, pH, stability, and solubility. […] At 20% and 50% RH it absorbed 1.9% and 2.1% of water by Karl Fischer after 48 hours of storage. The moisture uptake diminishes when anhydrous powder excipients (e.g. lactose anhydrous and mannitol powder) are used to formulate the pharmaceutical active into a hard capsule.

[2] = Preformulation solubility in vehicles; assay type: physicochemical
Protocol: as §1
Therefore for soft gelatin capsule formulations hydrophilic vehicles are preferred. The use of a co-solvent such as glycerin or propylene glycol in PEGs may be feasible for liquid or semisolid fills.

[3] = Preformulation pH stability study in buffered solutions; assay type: physicochemical; details: pH 4 and 7, ambient and stressed (40° C. and 50° C.) storage
Protocol: as §1

[4] = tested on: SP1.A3a mouse mammary carcinoma cells; assay: Growth factor dependent proliferation of SP1.A3a cells in vitro (tritiated thymidine); assay type: cell-based; details: 0.2 μg/ml, FIG. 7
Protocol: SP1.A3a mouse mammary carcinoma cells were grown for 24 hours in culture medium containing 10% bovine serum, with and without swainsonine hydrochloride at a concentration of 0.2 μg/ml. In the following 24 hours cells were maintained in serum-free medium (SFM) with and without swainsonine hydrochloride. Cells were then grown in the absence of growth factors for 6 hours, or exposed to one of the following growth factors: TNFα (tumor necrosis factor-α), TGFβ1 (transforming growth factor-β), TGFα, platelet-derived growth factor (PDGF), epidermal growth factor (EGF). Tritiated thymidine was added for a final 18 hours, cells were harvested using a multiple-cell harvester and radioactivity was measured in a β-counter as a measure of cell proliferation.

[5] = tested on: SP1.A3a mouse mammary adenocarcinoma; assay: SP1.A3a tumor growth in mice, oral administration in drinking water; assay type: in vivo, CBA/J mice
Protocol: The experiment was repeated using swainsonine hydrochloride administered in drinking water. SP1.A3a mouse mammary adenocarcinoma were maintained in exponential growth in RPMI 1640 medium containing 10% FBS. The cells were harvested and re-suspended at 3×10^5/ml in PBS and 0.1 ml containing 3×10^4 cells injected S.C. into the right flank of 7 week old female CBA/J mice (Jackson Laboratories) (n=25). The mice were subsequently supplied with drinking water alone (n=13) or drinking water containing 10 μg/ml swainsonine hydrochloride (n=12) (equivalent to a dose of 2 mg/kg/day).
Once a palpable tumor was evident, tumor size was measured twice a week using vernier callipers. At the end of the treatment period the tumors were excised and weighed.

[6] = tested on: early erythroid progenitor cells (CFU-E); assay: Murine bone marrow progenitor cell assay in methylcellulose, CFU-E; assay type: cell-based, C57BL/6 mice
Protocol: Pathogen-free C57BL/6 female mice, 8-9 weeks old, obtained from Jackson Laboratories were used. The room environment and photoperiod were controlled: 24° C.; humidity, 50±20%; 12 hr light and 12 hr dark. Mice were housed one per cage with ad libitum accesses to standard pelleted commercial laboratory diet and to sterile (autoclaved) tap water.
Swainsonine hydrochloride was manufactured by Seres Laboratories, Calif. FBS and methylcellulose (MethoCult M3330) were purchased from Stem Cell Technologies, Inc. (Vancouver. BC). Iscove's modified Dulbecco's medium was prepared using powdered media from Gibco BRL, deionized water and filter sterilization. For the handling of cells, the media was supplemented with 2% FBS and 50 μM β-mercaptoethanol (referred to as IMDM/FBS).
(§2) The healthy and GD0039 treated mice were euthanized by CO2 asphyxiation. Bone marrow (BM) cell suspensions were prepared under sterile conditions by flushing both femurs and tibiae with IMDM/FBS using a 26 gauge needle. Single cell suspensions were made up to 10.0 ml IMDM/FBS. The concentration of nucleated cells in each suspension was determined by triplicate counts on a hemocytometer. A portion of the cells was further diluted in media to the appropriate concentration before plating for the progenitor assay.
Colony-forming units (CFUs) were estimated by the methylcellulose method. One milliliter suspensions, containing 2×10^5 nucleated BM cells, in 0.1 ml of IMDM and 0.9 ml MethoCult (M3330), were plated in triplicate in 35 mm tissue culture dishes. […] The MethoCult M3330 contains 30% FBS and 10 μg/ml erythropoietin and is designed for the growth of early erythroid progenitor cells (CFU-E), which were scored after 3 days of incubation at 37° C. in a humidified atmosphere containing 5% CO2. […] Colonies containing more than 20 cells were scored using an inverted microscope with brightfield optics and 40× or 100× magnification.

[7] = tested on: granulocyte-macrophage progenitor cells (CFU-GM); assay: Murine bone marrow progenitor cell assay in methylcellulose, CFU-GM; assay type: cell-based, C57BL/6 mouse; details: FIG. 11
Protocol: as §2
Colony-forming units (CFUs) were estimated by the methylcellulose method. One milliliter suspensions, containing 2×10^5 nucleated BM cells, in 0.1 ml of IMDM and 0.9 ml MethoCult (M3330), were plated in triplicate in 35 mm tissue culture dishes. Swainsonine hydrochloride or swainsonine were added to certain plates, in 0.1 ml of IMDM at concentrations of 30 μg/ml and 3 μg/ml, which gave final concentrations of […]. The MethoCult M3330 contains 30% FBS and 10 μg/ml erythropoietin and is designed for the growth of early erythroid progenitor cells (CFU-E), which were scored after 3 days of incubation at 37° C. in a humidified atmosphere containing 5% CO2. […] Colonies containing more than 20 cells were scored using an inverted microscope with brightfield optics and 40× or 100× magnification. […]

STAT1 = STAT1 level and activation in mice (Western blot, immunoblotting); assay type: in vivo, DBA/2 mice
Protocol: To measure the level and activation of STATs, DBA/2 mice are treated for 6-9 days with 20 μg/mouse/day of swainsonine hydrochloride followed by a single intraperitoneal (i.p) injection of either sterile saline or 100 μg of poly IC (i.e., dsRNA, a surrogate for virus) in sterile saline. Two hours later an optimal time for STAT activation, spleens of the mice are homogenized and cytosolic and nuclear cell extracts are prepared. STAT protein levels are measured in the cytosolic and nuclear fractions by Western blot analysis. STAT phosphorylation (i.e. activation) is measured following immunoprecipitation using anti-phosphotyrosine antibodies.
DBA/2 mice received daily ip injections of SW hydrochloride (20 μg/day) for 10 days. On day 11 the mice were injected with Poly IC (100 μg/mouse) or an equivalent volume of PBS 2 h before being sacrificed. Spleen and liver tissues were collected and immediately frozen in liquid nitrogen. Nuclear extracts were prepared and analyzed (8 μg) by immunoblotting with the indicated antibodies. […] Cytosol extracts were prepared and analyzed (20 μg) by immunoblotting with the indicated antibodies. Spleen nuclear extracts were prepared and analyzed (8 μg) by immunoblotting with anti-phosphotyrosine antibodies.

SMILES: Cl.O[C@H]1[C@H]2[C@H](O)CCCN2C[C@@H]1O [swainsonine hydrochloride, (−)-(1S,2S,8R,8aR)-1,2,8-trihydroxyoctahydro-indolizidine hydrochloride salt]
- water absorbed by Karl Fischer ([1]; 20% RH): 1.9%
- water absorbed by Karl Fischer ([1]; 50% RH): 2.1%
- water absorbed ([1]; first 2 hours): approximately 8 % (w/w)
- water absorbed ([1]; first 8 hours): ~24 % (w/w)
- hygroscopicity ([1]; bulk drug): highly hygroscopic
- solubility in aqueous and hydrophilic vehicles [2]: highly soluble
- stability in buffered solutions [3]: stable
- TGF-β1 and TNF-α dependent growth stimulation of SP1.A3a cells [4]: suppresses
- tumor growth versus control mice ([5]; 10 μg/ml in drinking water (2 mg/kg/day), FIG. 9): slower growing tumors
- mean tumor weight ([5]; 10 μg/ml in drinking water, at 31 days, untreated 3.33 g): 1.79 g
- increase in the number of early CFU-E ([6]; 0.03 μg/ml to 10 μg/ml in vitro): ~3 fold
- number of early CFU-E, counted on day 3 ([6]; added to methylcellulose in vitro): significantly increased
- mean CFU-E of triplicate counts ± SD from 2 × 10^5 nucleated BM cells ([6]; mouse 1 (control), 0.3 μg/ml in vitro, in vitro control 54 ± 12): 75 ± 16
- mean CFU-E of triplicate counts ± SD from 2 × 10^5 nucleated BM cells ([6]; mouse 1 (control), 3 μg/ml in vitro, in vitro control 54 ± 12): 87 ± 16
- mean CFU-E of triplicate counts ± SD from 2 × 10^5 nucleated BM cells ([6]; mouse 2 (GD0039 treated in vivo, 20 μg/day for four days), 0.3 μg/ml in vitro): 97 ± 4
- mean CFU-E of triplicate counts ± SD from 2 × 10^5 nucleated BM cells ([6]; mouse 2 (GD0039 treated in vivo, 20 μg/day for four days), 3 μg/ml in vitro): 127 ± 18
- mean CFU-E of triplicate counts ± SD from 2 × 10^5 nucleated BM cells ([6]; mouse 2 (GD0039 treated in vivo, 20 μg/day for four days), no treatment in vitro): 22 ± 5
- effect on granulocyte-macrophage progenitor cells in vitro [7]: stimulate
- activation of STAT1 in spleen (STAT1; 20 μg/day ip for 10 days, then Poly IC 100 μg/mouse, FIG. 10A): increases the activation
- STAT1 cytosolic protein levels (STAT1; 20 μg/day ip, spleen): enhanced
